# Calls of active or inactive are those of the source. No cut-off for these calls is given here.
# How the values were obtained:
# Format in all cases: functional
# [1] = system: NCI-H226; assay: Growth inhibition of human NCI-H226 cells after 48 hrs by cell counting analysis; settings: at 10 µM
# [2] = system: T47D; assay: Growth inhibition of human T47D cells after 48 hrs by cell counting analysis; settings: at 10 µM
# [3] = system: HL-60; assay: Growth inhibition of human HL60 cells after 48 hrs by cell counting analysis; settings: at 10 µM
# [4] = system: U-251; assay: Growth inhibition of human U251 cells after 48 hrs by cell counting analysis; settings: at 10 µM
# [5] = Growth inhibition of human NCI-322M cells after 48 hrs by cell counting analysis; settings: at 10 µM
# [6] = Antiproliferative activity against human colon cancer cells after 48 hrs by cell counting analysis; settings: Cancer cell lines
# [7] = system: PC-3; assay: Growth inhibition of human PC3 cells after 48 hrs by cell counting analysis; settings: at 10 µM
# [8] = system: TK-10; assay: Growth inhibition of human TK10 cells after 48 hrs by cell counting analysis; settings: at 10 µM
# [9] = system: IGROV-1; assay: Growth inhibition of human IGROV1 cells after 48 hrs by cell counting analysis; settings: at 10 µM
# [10] = system: OVCAR-4; assay: Growth inhibition of human OVCAR4 cells after 48 hrs by cell counting analysis; settings: at 10 µM
# [11] = Antiproliferative activity against human ovarian cancer cells after 48 hrs by cell counting analysis; settings: Cancer cell lines
# [12] = system: HCC 2998; assay: Growth inhibition of human HCC2998 cells after 48 hrs by cell counting analysis; settings: at 10 µM
# [13] = system: MOLT-4; assay: Growth inhibition of human MOLT4 cells after 48 hrs by cell counting analysis; settings: at 10 µM
# [14] = system: CAKI-1; assay: Growth inhibition of human Caki1 cells after 48 hrs by cell counting analysis; settings: at 10 µM
# [15] = Antiproliferative activity against human breast cancer cells after 48 hrs by cell counting analysis; settings: Cancer cell lines
# [16] = system: Malme-3M; assay: Growth inhibition of human MALME-3M cells after 48 hrs by cell counting analysis; settings: at 10 µM
# [17] = system: RPMI-8226; assay: Growth inhibition of human RPMI8226 cells after 48 hrs by cell counting analysis; settings: at 10 µM
# [18] = Antiproliferative activity against human renal cancer cells after 48 hrs by cell counting analysis; settings: Cancer cell lines
# [19] = system: UACC-62; assay: Growth inhibition of human UACC62 cells after 48 hrs by cell counting analysis; settings: at 10 µM
# [20] = system: SF-295; assay: Growth inhibition of human SF295 cells after 48 hrs by cell counting analysis; settings: at 10 µM
# [21] = system: MDA-MB-468; assay: Growth inhibition of human MDA-MB-468 cells after 48 hrs by cell counting analysis
# [22] = system: UACC-257; assay: Growth inhibition of human UACC257 cells after 48 hrs by cell counting analysis; settings: at 10 µM
# [23] = system: SF-539; assay: Growth inhibition of human SF539 cells after 48 hrs by cell counting analysis; settings: at 10 µM
# [24] = system: EKVX; assay: Growth inhibition of human EKVX cells after 48 hrs by cell counting analysis; settings: at 10 µM
# [25] = system: HCT-15; assay: Growth inhibition of human HCT15 cells after 48 hrs by cell counting analysis; settings: at 10 µM
# [26] = Antiproliferative activity against human leukemia cells after 48 hrs by cell counting analysis
# [27] = system: HT-29; assay: Growth inhibition of human HT-29 cells after 48 hrs by cell counting analysis; settings: at 10 µM
# [28] = system: SF-268; assay: Growth inhibition of human SF268 cells after 48 hrs by cell counting analysis; settings: at 10 µM
# [29] = Antiproliferative activity against human melanoma cells after 48 hrs by cell counting analysis
# [30] = system: OVCAR-8; assay: Growth inhibition of human OVCAR8 cells after 48 hrs by cell counting analysis; settings: at 10 µM
# [31] = system: HCT-116; assay: Growth inhibition of human HCT116 cells after 48 hrs by cell counting analysis; settings: at 10 µM
# [32] = system: RXF 393; assay: Growth inhibition of human RXF393 cells after 48 hrs by cell counting analysis
# [33] = system: K562; assay: Growth inhibition of human K562 cells after 48 hrs by cell counting analysis; settings: at 10 µM
# [34] = system: A549; assay: Growth inhibition of human A549 cells after 48 hrs by cell counting analysis; settings: at 10 µM
# [35] = system: HOP-92; assay: Growth inhibition of human HOP92 cells after 48 hrs by cell counting analysis
# [36] = system: MDA-MB-435; assay: Growth inhibition of human MDA-MB-435 cells after 48 hrs by cell counting analysis; settings: at 10 µM
# [37] = system: OVCAR-5; assay: Growth inhibition of human OVCAR5 cells after 48 hrs by cell counting analysis; settings: at 10 µM
# [38] = system: ACHN; assay: Growth inhibition of human ACHN cells after 48 hrs by cell counting analysis; settings: at 10 µM
# [39] = system: NCI-H23; assay: Growth inhibition of human NCI-H23 cells after 48 hrs by cell counting analysis; settings: at 10 µM
# [40] = system: KM12; assay: Growth inhibition of human KM12 cells after 48 hrs by cell counting analysis; settings: at 10 µM
# [41] = system: HOP-62; assay: Growth inhibition of human HOP62 cells after 48 hrs by cell counting analysis; settings: at 10 µM
# [42] = Growth inhibition of human NCI-ADR-RES cells after 48 hrs by cell counting analysis; settings: at 10 µM
# [43] = system: LOX IMVI; assay: Growth inhibition of human LOXIMVI cells after 48 hrs by cell counting analysis; settings: at 10 µM
# [44] = system: MCF7; assay: Growth inhibition of human MCF7 cells after 48 hrs by cell counting analysis; settings: at 10 µM
# [45] = system: SR; assay: Growth inhibition of human SR cells after 48 hrs by cell counting analysis; settings: at 10 µM
# [46] = system: UO-31; assay: Growth inhibition of human UO31 cells after 48 hrs by cell counting analysis; settings: at 10 µM
# [47] = system: SNB-75; assay: Growth inhibition of human SNB75 cells after 48 hrs by cell counting analysis; settings: at 10 µM
# [48] = Antiproliferative activity against human prostate cancer cells after 48 hrs by cell counting analysis; settings: Cancer cell lines
# [49] = Antiproliferative activity against human non-small cell lung cancer cells after 48 hrs by cell counting analysis; settings: Cancer cell lines
# [50] = system: SK-MEL-28; assay: Growth inhibition of human SK-MEL-28 cells after 48 hrs by cell counting analysis; settings: at 10 µM
# [51] = system: M14; assay: Growth inhibition of human M14 cells after 48 hrs by cell counting analysis; settings: at 10 µM
# [52] = system: SK-MEL-5; assay: Growth inhibition of human SK-MEL-5 cells after 48 hrs by cell counting analysis; settings: at 10 µM
# [53] = system: SK-MEL-2; assay: Growth inhibition of human SK-MEL-2 cells after 48 hrs by cell counting analysis; settings: at 10 µM
# [54] = system: SW-620; assay: Growth inhibition of human SW620 cells after 48 hrs by cell counting analysis; settings: at 10 µM
# [55] = system: CCRF-CEM; assay: Growth inhibition of human CCRF-CEM cells after 48 hrs by cell counting analysis; settings: at 10 µM
# [56] = system: BT-549; assay: Growth inhibition of human BT549 cells after 48 hrs by cell counting analysis; settings: at 10 µM
# [57] = Antiproliferative activity against human CNS cancer cells after 48 hrs by cell counting analysis; settings: Cancer cell lines
# [58] = system: NCI-H522; assay: Growth inhibition of human NCI-H522 cells after 48 hrs by cell counting analysis; settings: at 10 µM
# [59] = system: SK-OV-3; assay: Growth inhibition of human SKOV3 cells after 48 hrs by cell counting analysis; settings: at 10 µM
# [60] = system: MDA-MB-231; assay: Growth inhibition of human MDA-MB-231 cells after 48 hrs by cell counting analysis; settings: at 10 µM
# [61] = system: SNB-19; assay: Growth inhibition of human SNB19 cells after 48 hrs by cell counting analysis; settings: at 10 µM
# [62] = system: OVCAR-3; assay: Growth inhibition of human OVCAR3 cells after 48 hrs by cell counting analysis; settings: at 10 µM
# [63] = system: SN12C; assay: Growth inhibition of human SN12C cells after 48 hrs by cell counting analysis; settings: at 10 µM
# [64] = read-out: LC50 (the source's name)
compound,measurement,setting,value
O=C(CCCl)Nc1nc(-c2ccc(Cl)cc2)cs1,growth inhibition (GI),[1],51%
same,growth inhibition (GI),[2],52.1%
same,growth inhibition (GI),[3],28.5%
same,growth inhibition (GI),[4],55.4%
same,growth inhibition (GI),[5],16.9%
same,GI50,[6],3.9 µM
same,TGI,[6],13.5 µM
same,CC50,[6]; [64],44 µM
same,growth inhibition (GI),[7],59.7%
same,growth inhibition (GI),[8],<10%
same,growth inhibition (GI),[9],48.9%
same,growth inhibition (GI),[10],16.4%
same,GI50,[11],4.1 µM
same,TGI,[11],21.8 µM
same,CC50,[11]; [64],67 µM
same,growth inhibition (GI),[12],15.8%
same,growth inhibition (GI),[13],61.3%
same,growth inhibition (GI),[14],52.5%
same,GI50,[15],2.4 µM
same,TGI,[15],8.8 µM
same,CC50,[15]; [64],55.9 µM
same,growth inhibition (GI),[16],44%
same,growth inhibition (GI),[17],92.8%
same,GI50,[18],1.7 µM
same,TGI,[18],7.9 µM
same,CC50,[18]; [64],32.1 µM
same,growth inhibition (GI),[19],38.7%
same,growth inhibition (GI),[20],29.8%
same,growth inhibition (GI),[21],Active
same,growth inhibition (GI),[22],43%
same,growth inhibition (GI),[23],94.6%
same,growth inhibition (GI),[24],29.6%
same,growth inhibition (GI),[25],61.4%
same,GI50,[26],2.2 µM
same,TGI,[26],8.9 µM
same,CC50,[26]; [64],90.2 µM
same,growth inhibition (GI),[27],78%
same,growth inhibition (GI),[28],51.7%
same,GI50,[29],3.2 µM
same,TGI,[29],13.1 µM
same,CC50,[29]; [64],47.6 µM
same,growth inhibition (GI),[30],52.8%
same,growth inhibition (GI),[31],79.3%
same,growth inhibition (GI),[32],Active
same,growth inhibition (GI),[33],63%
same,growth inhibition (GI),[34],39.9%
same,growth inhibition (GI),[35],Active
same,growth inhibition (GI),[36],68.1%
same,growth inhibition (GI),[37],35.7%
same,growth inhibition (GI),[38],39.2%
same,growth inhibition (GI),[39],29%
same,growth inhibition (GI),[40],43.8%
same,growth inhibition (GI),[41],49%
same,growth inhibition (GI),[42],51.2%
same,growth inhibition (GI),[43],43.1%
same,growth inhibition (GI),[44],55.8%
same,growth inhibition (GI),[45],77.7%
same,growth inhibition (GI),[46],70.1%
same,growth inhibition (GI),[47],58.8%
same,GI50,[48],2.8 µM
same,TGI,[48],13.8 µM
same,CC50,[48]; [64],42.2 µM
same,GI50,[49],6.1 µM
same,TGI,[49],19 µM
same,CC50,[49]; [64],51.5 µM
same,growth inhibition (GI),[50],21.2%
same,growth inhibition (GI),[51],44.7%
same,growth inhibition (GI),[52],46.8%
same,growth inhibition (GI),[53],72.7%
same,growth inhibition (GI),[54],76%
same,growth inhibition (GI),[55],88.3%
same,growth inhibition (GI),[56],89.9%
same,GI50,[57],3.1 µM
same,TGI,[57],14.7 µM
same,CC50,[57]; [64],50.9 µM
same,growth inhibition (GI),[58],95.6%
same,growth inhibition (GI),[59],25.7%
same,growth inhibition (GI),[60],44.6%
same,growth inhibition (GI),[61],26.2%
same,growth inhibition (GI),[62],89.8%
same,growth inhibition (GI),[63],48.3%

# — ChEMBL document CHEMBL2150993, “Substituted thiazoles VII. Synthesis and antitumor activity of certain 2-(substituted amino)-4-phenyl-1,3-thiazole analogs” (2012)
